The record followed here is patent publication US20250034153A1, “TRIAZOLOPYRIMIDINES AS A2A / A2B INHIBITORS” (Incyte Corporation, priority 2019, published 2025).

Structures are written as SMILES. A value given as a limit tells only on which side of the number the result lay.

The target of test [1] is Adenosine A2A (Homo sapiens (Human), UniProt P29274). As to the kind of experiment: A2A Tag-lite HTRF assay (Example C). Conditions: Tag-lite Adenosine A2A labeled cells, Red antagonist fluorescent ligand 12.5 nM, one-site competitive binding; read-out: A2A_Ki. Here is the method:
Example C. A2A Tag-Lite® HTRF Assay
Assays were conducted in black low volume 384-well polystyrene plates (Greiner 784076-25) in a final volume of 10 μL. Test compounds were first serially diluted in DMSO and 100 nl added to the plate wells before the addition of other reaction components. The final concentration of DMSO was 1%. Tag-lite® Adenosine A2A labeled cells (CisBio C1TT1A2A) were diluted 1:5 into Tag-lite buffer (CisBio LABMED) and spun 1200 g for 5 mins. The pellet was resuspended at a volume 10.4× the initial cell suspension volume in Tag-lite buffer, and Adenosine A2A Receptor Red antagonist fluorescent ligand (CisBio L0058RED) added at 12.5 nM final concentration. 10 ul of the cell and ligand mix was added to the assay wells and incubated at room temperature for 45 minutes before reading on a PHERAstar FS plate reader (BMG Labtech) with HTRF 337/620/665 optical module. Percent binding of the fluorescent ligand was calculated; where 100 nM of A2A antagonist control ZM 241385 (Tocris 1036) displaces the ligand 100% and 1% DMSO has 0% displacement. The % binding data versus the log of the inhibitor concentration was fitted to a one-site competitive binding model (GraphPad Prism version 7.02) where the ligand constant=12.5 nM and the ligand Kd=1.85 nM.
In general terms: Time-resolved FRET reads energy transfer from a long-lived donor to a nearby acceptor.

The target of test [2] is human adenosine A2B receptor (Homo sapiens (Human), UniProt P29275). The test is described as follows: Adenosine A2B receptor cyclic AMP GS assay (Example B). The class given is cell-based. The settings on record: HEK-293 cells expressing human A2B, agonist NECA 12 nM, cAMP accumulation (FRET); read-out: A2B_cAMP_EC50. The protocol:
Example B. Adenosine A2B Receptor Cyclic AMP GS Assay
Stably transfected HEK-293 cells expressing the human adenosine A2B receptor (Perkin Elmer) were maintained in MEM culture medium with 10% FBS and 100 μg/ml Geneticin (Life Technologies). 18 to 24 hours prior to assay, geneticin was removed from culture. The cisbio cAMP-GS Dynamic kit utilizing the FRET (Fluorescence Resonance Energy Transfer) technology was used to measure cAMP accumulation in the cells. Compounds of the present disclosure at an appropriate concentration were mixed with 10000 cells/well in white 96 well half area plates (Perkin Elmer) for 30 min at RT gently shaking. Agonist, NECA (R&D Technologies) at 12 nM was added to each well for 60 min at RT gently shaking. Detection reagents, d2-labeled cAMP (acceptor) and anti-cAMP cryptate (donor) were added to each well for 60 min at RT gently shaking. Plates were read on Pherastar (BMG Labtech), fluorescence ratio 665/620 was calculated and EC50 determination was performed by fitting the curve of percent of control versus the log of the compound concentration using GraphPad Prism.
On the technique in general: Cyclic AMP is a second messenger, typically raised through Gs and lowered through Gi signalling.

Chain of human adenosine A2B receptor (P29275 whole entry): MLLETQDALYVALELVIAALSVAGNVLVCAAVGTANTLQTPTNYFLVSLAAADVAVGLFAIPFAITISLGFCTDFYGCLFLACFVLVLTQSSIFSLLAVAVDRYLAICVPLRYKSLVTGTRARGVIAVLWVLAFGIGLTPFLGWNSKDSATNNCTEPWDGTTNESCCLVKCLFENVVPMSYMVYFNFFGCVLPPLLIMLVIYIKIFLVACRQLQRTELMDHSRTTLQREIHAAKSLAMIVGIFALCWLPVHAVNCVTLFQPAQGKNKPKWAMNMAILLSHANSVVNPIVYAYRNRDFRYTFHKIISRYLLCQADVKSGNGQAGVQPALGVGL
Chain of Adenosine A2A (P29274 whole entry): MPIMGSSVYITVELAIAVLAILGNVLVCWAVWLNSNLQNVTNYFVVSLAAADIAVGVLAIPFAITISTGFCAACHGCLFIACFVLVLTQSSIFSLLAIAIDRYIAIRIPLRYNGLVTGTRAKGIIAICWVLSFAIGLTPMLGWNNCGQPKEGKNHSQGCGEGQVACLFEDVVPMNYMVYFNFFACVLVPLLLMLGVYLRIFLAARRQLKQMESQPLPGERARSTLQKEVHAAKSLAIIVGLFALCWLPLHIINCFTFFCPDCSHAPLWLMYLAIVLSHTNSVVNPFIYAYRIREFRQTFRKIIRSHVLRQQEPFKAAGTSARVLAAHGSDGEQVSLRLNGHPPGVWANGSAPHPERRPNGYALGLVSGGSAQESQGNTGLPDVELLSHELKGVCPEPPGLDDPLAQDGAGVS

As to `CCn1cc(-c2c(-c3cccc(C#N)c3)nc(N)n3nc(OCc4ncccc4C)nc23)ccc1=O` [Example 22, 3-(5-amino-8-(1-ethyl-6-oxo-1,6-dihydropyridin-3-yl)-2-((3-methylpyridin-2-yl)methoxy)-[1,2,4]triazolo[1,5-c]pyrimidin-7-yl)benzonitrile], in test [1], the Ki was no more than 10 nM. Besides, the EC50 in test [2] is 10 to 100 nM.

Regarding `Cc1cccnc1CNc1nc2c(-c3ccc(=O)n(C)c3)c(-c3cccc(C#N)c3F)nc(N)n2n1` [Example 23, 3-(5-amino-8-(1-methyl-6-oxo-1,6-dihydropyridin-3-yl)-2-(((3-methylpyridin-2-yl)methyl)amino)-[1,2,4]triazolo[1,5-c]pyrimidin-7-yl)-2-fluorobenzonitrile], the Ki in test [1] was no more than 10 nM. Moreover, the EC50 in test [2] fell in the range of 10 to 100 nM.

For `CCn1cc(-c2c(-c3cccc(C#N)c3F)nc(N)n3nc(NCc4ncccc4C)nc23)ccc1=O` [Example 24, 3-(5-amino-8-(1-ethyl-6-oxo-1,6-dihydropyridin-3-yl)-2-(((3-methylpyridin-2-yl)methyl)amino)-[1,2,4]triazolo[1,5-c]pyrimidin-7-yl)-2-fluorobenzonitrile], the Ki in test [1] was no more than 10 nM. Moreover, the EC50 in test [2] is 10 to 100 nM.

In the case of `Cc1cccnc1CNc1nc2c(-c3ccc(=O)n(C)n3)c(-c3cccc(C#N)c3F)nc(N)n2n1` [Example 25, 3-(5-amino-8-(1-methyl-6-oxo-1,6-dihydropyridazin-3-yl)-2-(((3-methylpyridin-2-yl)methyl)amino)-[1,2,4]triazolo[1,5-c]pyrimidin-7-yl)-2-fluorobenzonitrile], the Ki in test [1] was no more than 10 nM. Besides, the EC50 in test [2] is no more than 10 nM.

Take `COc1cc(-c2c(-c3cccc(C#N)c3F)nc(N)n3nc(NCc4ncccc4C)nc23)cc(C)n1` [Example 26, 3-(5-amino-8-(2-methoxy-6-methylpyridin-4-yl)-2-(((3-methylpyridin-2-yl)methyl)amino)-[1,2,4]triazolo[1,5-c]pyrimidin-7-yl)-2-fluorobenzonitrile]: in test [1], the Ki is no more than 10 nM. Besides, the EC50 in test [2] was in the range of 10 to 100 nM.

Regarding `Cn1nc(-c2c(-c3cccc(C#N)c3)nc(N)n3nc(Cc4ccccn4)nc23)ccc1=O` [Example 27, 3-(5-amino-8-(1-methyl-6-oxo-1,6-dihydropyridazin-3-yl)-2-(pyridin-2-ylmethyl)-[1,2,4]triazolo[1,5-c]pyrimidin-7-yl)benzonitrile], the Ki in test [1] was no more than 10 nM. For the same compound, the EC50 in test [2] was no more than 10 nM.

In the case of `N#Cc1cccc(-c2nc(N)n3nc(OCc4ncccc4F)nc3c2-c2ccncn2)c1` [Example 28, 3-(5-amino-2-((3-fluoropyridin-2-yl)methoxy)-8-(pyrimidin-4-yl)-[1,2,4]triazolo[1,5-c]pyrimidin-7-yl)benzonitrile], the Ki in test [1] is no more than 10 nM. Further, the EC50 in test [2] is no more than 10 nM.

For the compound `Cn1cc(-c2c(-c3cccc(C#N)c3)nc(N)n3nc(OCc4ncccc4F)nc23)ccc1=O` [Example 29, 3-(5-amino-2-((3-fluoropyridin-2-yl)methoxy)-8-(1-methyl-6-oxo-1,6-dihydropyridin-3-yl)-[1,2,4]triazolo[1,5-c]pyrimidin-7-yl)benzonitrile], the Ki in test [1] is no more than 10 nM. The EC50 in test [2] was no more than 10 nM.

As for `Cn1nc(-c2c(-c3cccc(C#N)c3)nc(N)n3nc(OCc4ncccc4F)nc23)ccc1=O` [Example 30, 3-(5-amino-2-((3-fluoropyridin-2-yl)methoxy)-8-(1-methyl-6-oxo-1,6-dihydropyridazin-3-yl)-[1,2,4]triazolo[1,5-c]pyrimidin-7-yl)benzonitrile], in test [1], the Ki is no more than 10 nM. For the same compound, the EC50 in test [2] was no more than 10 nM.

Regarding `Cc1cc(-c2c(-c3cccc(C#N)c3)nc(N)n3nc(OCc4ncccc4F)nc23)cc(C)n1` [Example 32, 3-(5-amino-8-(2,6-dimethylpyridin-4-yl)-2-((3-fluoropyridin-2-yl)methoxy)-[1,2,4]triazolo[1,5-c]pyrimidin-7-yl)benzonitrile], in test [1], the Ki was no more than 10 nM. Further, the EC50 in test [2] lay within 10 to 100 nM.

In the case of `COc1cc(-c2c(-c3cccc(C#N)c3)nc(N)n3nc(OCc4ncccc4F)nc23)cc(C)n1` [Example 33, 3-(5-amino-2-((3-fluoropyridin-2-yl)methoxy)-8-(2-methoxy-6-methylpyridin-4-yl)-[1,2,4]triazolo[1,5-c]pyrimidin-7-yl)benzonitrile], in test [1], the Ki is no more than 10 nM. Further, the EC50 in test [2] is no more than 10 nM.

Turning to `N#Cc1cccc(-c2nc(N)n3nc(Nc4ccccn4)nc3c2-c2ccncn2)c1` [Example 34, 3-(5-amino-2-(pyridin-2-ylamino)-8-(pyrimidin-4-yl)-[1,2,4]triazolo[1,5-c]pyrimidin-7-yl)benzonitrile], in test [1], the Ki is no more than 10 nM. In addition, the EC50 in test [2] was no more than 10 nM.

For `Cc1cccc(Nc2nc3c(-c4ccncn4)c(-c4cccc(C#N)c4)nc(N)n3n2)n1` [Example 40, 3-(5-amino-2-((6-methylpyridin-2-yl)amino)-8-(pyrimidin-4-yl)-[1,2,4]triazolo[1,5-c]pyrimidin-7-yl)benzonitrile], the Ki in test [1] is no more than 10 nM. In test [2], the EC50 is no more than 10 nM.

Regarding `N#Cc1cccc(-c2nc(N)n3nc(COc4ccccn4)nc3c2-c2ccncn2)c1` [Example 41, 3-(5-amino-2-((pyridin-2-yloxy)methyl)-8-(pyrimidin-4-yl)-[1,2,4]triazolo[1,5-c]pyrimidin-7-yl)benzonitrile], in test [1], the Ki was no more than 10 nM. Besides, the EC50 in test [2] is no more than 10 nM.

For the compound `N#Cc1cccc(-c2nc(N)n3nc(COc4ncccc4C#N)nc3c2-c2ccncn2)c1` [Example 42, 2-((5-amino-7-(3-cyanophenyl)-8-(pyrimidin-4-yl)-[1,2,4]triazolo[1,5-c]pyrimidin-2-yl)methoxy)nicotinonitrile], the Ki in test [1] is no more than 10 nM. The EC50 in test [2] is no more than 10 nM.

In the case of `Cn1cc(-c2c(-c3cccc(C#N)c3)nc(N)n3nc(COc4ncccc4C#N)nc23)ccc1=O` [Example 43, 2-((5-amino-7-(3-cyanophenyl)-8-(1-methyl-6-oxo-1,6-dihydropyridin-3-yl)-[1,2,4]triazolo[1,5-c]pyrimidin-2-yl)methoxy)nicotinonitrile], the Ki in test [1] was no more than 10 nM. Also, in test [2], the EC50 is no more than 10 nM.

For `Cn1nc(-c2c(-c3cccc(C#N)c3)nc(N)n3nc(COc4ncccc4C#N)nc23)ccc1=O` [Example 44, 2-((5-amino-7-(3-cyanophenyl)-8-(1-methyl-6-oxo-1,6-dihydropyridazin-3-yl)-[1,2,4]triazolo[1,5-c]pyrimidin-2-yl)methoxy)nicotinonitrile], in test [1], the Ki is no more than 10 nM. Also, the EC50 in test [2] was 10 to 100 nM.

For `Cc1cc(-c2c(-c3cccc(C#N)c3)nc(N)n3nc(COc4ncccc4C#N)nc23)cc(C)n1` [Example 46, 2-((5-amino-7-(3-cyanophenyl)-8-(2,6-dimethylpyridin-4-yl)-[1,2,4]triazolo[1,5-c]pyrimidin-2-yl)methoxy)nicotinonitrile], the Ki in test [1] is no more than 10 nM. Moreover, the EC50 in test [2] lay in the range of 100 to 1000 nM.

Turning to `COc1cc(-c2c(-c3cccc(C#N)c3)nc(N)n3nc(COc4ncccc4C#N)nc23)cc(C)n1` [Example 47, 2-((5-amino-7-(3-cyanophenyl)-8-(2-methoxy-6-methylpyridin-4-yl)-[1,2,4]triazolo[1,5-c]pyrimidin-2-yl)methoxy)nicotinonitrile], the Ki in test [1] was no more than 10 nM. In addition, the EC50 in test [2] was 10 to 100 nM.

`N#Cc1cccc(-c2nc(N)n3nc(Cn4nnc(-c5ccccn5)n4)nc3c2-c2ccncn2)c1` [Example 50, 3-(5-amino-2-((5-(pyridin-2-yl)-2H-tetrazol-2-yl)methyl)-8-(pyrimidin-4-yl)-[1,2,4]triazolo[1,5-c]pyrimidin-7-yl)benzonitrile]: in test [1], the Ki is no more than 10 nM. Further, the EC50 in test [2] is no more than 10 nM.

As for `N#Cc1cccc(-c2nc(N)n3nc(Cn4nnnc4-c4ncccn4)nc3c2-c2ccncn2)c1` [Example 51, 3-(5-amino-2-((5-(pyrimidin-2-yl)-1H-tetrazol-1-yl)methyl)-8-(pyrimidin-4-yl)-[1,2,4]triazolo[1,5-c]pyrimidin-7-yl)benzonitrile], the Ki in test [1] was no more than 10 nM. Besides, the EC50 in test [2] was no more than 10 nM.

For `N#Cc1cccc(-c2nc(N)n3nc(Cn4nnnc4-c4ccncn4)nc3c2-c2ccncn2)c1` [Example 52, 3-(5-amino-8-(pyrimidin-4-yl)-2-((5-(pyrimidin-4-yl)-1H-tetrazol-1-yl)methyl)-[1,2,4]triazolo[1,5-c]pyrimidin-7-yl)benzonitrile], in test [1], the Ki was no more than 10 nM. For the same compound, in test [2], the EC50 is no more than 10 nM.
